This is an account of results in patent US5834301A, “Method of removing color from kraft wood pulps” (priority 1995, dated 1998).

Common to all, as to format: biochemical
What all share (details): 1 mM reagent

In assay [1] the test system is Streptomyces sp. TUB B-12-2 endoxylanase xyl 3. On the procedure:
(§1) Xylanase activity was routinely determined by measuring the release of reducing sugars from either 1% (w/v) alkali-soluble or water soluble oat-spelt xylan, using the Somogyi's modification Nelson method (NS) as previously described. Crude or purified enzyme preparations were diluted appropriately to obtain maximal activity consistent with a linear response. For comparative purposes, xylanase activities were measured against 1% (w/v) water soluble and water insoluble xylan from either oat-spelts or birch (Sigma). The dinitrosalicylic acid (DNS) method of Miller, Anal. Chem., 31:426-429 (1959) was used to assay xylanase activity during initial screening. Carboxymethylcellulase activity (CMCase) was assayed by replacing 1% xylan with 1% of low viscosity carboxymethyl cellulose (Sigma). Acetylated glucuronoxylan was recovered from birch wood flakes by hot water extraction. β-Xylosidase was assayed as described by Bachmann and McCarthy, J. Gen. Microbiol., 135:293-299 (1989) using 5 mM p-nitrophenyl-β-D-xylopyranoside in 50 mM potassium phosphate buffer at pH 7.0. The values of the Michaelis constant (Km) and the maximum velocity (Vmax) were determined from a Lineweaver-Burke plot of assayed activities over a range of substrate concentrations. Suitably diluted xylanases were incubated with alkali-soluble birch wood or oat spelt xylan at concentrations ranging from 0.5 to 10 mg/ml under the assay conditions given.
(§2) f. Effectors. We investigated the effects of 1 mM metal ions and other agents on the activities of purified endoxylanases (Table 14).

Assay [2] deals with Streptomyces sp. TUB B-12-2 endoxylanase xyl 1b. The procedure: as §1, §2
Assay [3] relates to Streptomyces sp. TUB B-12-2 endoxylanase xyl 1a. On the procedure:
as §1, §2

The subject of assay [4] is Streptomyces sp. TUB B-12-2 endoxylanase xyl 4. On the procedure:
as §1, §2

In assay [5] the test system is Streptomyces sp. TUB B-12-2 endoxylanase xyl 2. The procedure:
as §1, §2

In the case of N-Bromosuccinamide, in assay [1], the “Effect on activity of xyl 3 (in words)” value is on record as “totally inactivated” and the “Relative activity (%) xyl 3” value was found to be 0%. Further, in assay [2], the “Effect on activity of xyl 1b (in words)” value is “totally inactivated” and the “Relative activity (%) xyl 1b” value came to 0%. Besides, in assay [3], the “Effect on activity of xyl 1a (in words)” value was “totally inactivated” and the “Relative activity (%) xyl 1a” value was 0%. For the same compound, in assay [4], the “Effect on activity of xyl 4 (in words)” value is reported as “totally inactivated” and the “Relative activity (%) xyl 4” value was determined as 0%. For the same compound, in assay [5], the “Effect on activity of xyl 2 (in words)” value is given as “totally inactivated” and the “Relative activity (%) xyl 2” value was found to be 0%.
Consider `O=C(O)c1cc[c]([Hg][OH])cc1` [PHMB, p-Hydroxymercury-benzoate], for which the “Relative activity (%) xyl 3” value in assay [1] was 96%. In assay [2], the “Effect on activity of xyl 1b (in words)” value is “completely inactivated” and the “Relative activity (%) xyl 1b” value is given as 0%. Further, the “Relative activity (%) xyl 1a” value in assay [3] is reported as 100%. Besides, the “Relative activity (%) xyl 4” value in assay [4] was 95%. In addition, the “Relative activity (%) xyl 2” value in assay [5] is 90%.
Consider `O=S(=O)(F)Cc1ccccc1` [PMSF, Phenylmethylsulfonylfluoride], for which, in assay [1], the “Effect on activity of xyl 3 (in words)” value is reported as “did not influence the activity” and the “Relative activity (%) xyl 3” value came to 100%. Also, in assay [2], the “Effect on activity of xyl 1b (in words)” value is recorded as “did not influence the activity” and the “Relative activity (%) xyl 1b” value came to 87%. Moreover, in assay [3], the “Effect on activity of xyl 1a (in words)” value was “did not influence the activity” and the “Relative activity (%) xyl 1a” value came out at 95%. In assay [4], the “Effect on activity of xyl 4 (in words)” value is on record as “did not influence the activity” and the “Relative activity (%) xyl 4” value turned out to be 100%. Also, in assay [5], the “Effect on activity of xyl 2 (in words)” value is recorded as “did not influence the activity” and the “Relative activity (%) xyl 2” value turned out to be 100%.
